Experimental data from patent US7977082B2, “Isomaltulose synthases, polynucleotides encoding them and uses therefor” (The University of Queensland of St. Lucia, priority 2001, dated 2011).

What was measured:
[1] = test system: P. dispersa 68J; assay: Growth in BP medium with different sugars; format: cell-based; conditions: 2% sugar added to BP medium, 18 h incubation at 30°C
Method: (§1) Isomaltulose production was tested using cells grown in LB and in a basal peptone medium (BP, comprising 1% BBL gelysate peptone and 0.5% NaCl, adjusted to pH 7.0 prior to autoclaving). Glucose, fructose, sucrose, lactose, maltose or isomaltulose was added to the cooled media, from a filter-sterilised stock. The media containing 4% (w/v) sucrose are referred to as SLB and SBP respectively.
(§2) Inoculum of 100 μL from a culture grown for 12 h in LB medium was added to 25 mL growth medium in a 250 mL flask. After 18 h at 30° C. on a shaker at 225 rpm, OD600 was used to measure growth. Cultures were diluted with growth medium to OD600=1.50 (approximately half the cell density of a saturated culture in SLB). Aliquots of 1 mL were harvested by centrifugation at 5000×g for 10 min and washed three times with 0.1 M citrate/phosphate buffer (pH 6.0). The cell pellets were resuspended in 0.4 mL of 0.1 M citrate/phosphate buffer (pH 6.0) containing 50% sucrose (w/v). Culture supernatant was filtered through a 0.2 μm filter (Pall Acrodisc), and 0.1 mL was mixed with 0.4 mL of 0.1 M citrate/phosphate buffer (pH 6.0) containing 50% sucrose (w/v), for parallel testing of culture filtrate and harvested cells in the SI assay.

[2] = test system: purified SI from P. dispersa 68J; assay: Inhibition of isomaltulose production by glucose and fructose; format: biochemical; conditions: 277 mM glucose or fructose
Method: (§3) SI activity was measured by incubating the purified enzyme with different sucrose concentrations (3, 6, 15, 58, 146, 292, 584, 877, 1169 and 1461 mM) under standard assay conditions, and also with addition of glucose, fructose or both to a final concentration of 277 mM. Data were analyzed according to the method of Lineweaver and Burk (Voet and Voet, 1995) to calculate Km and Vmax values.

[3] = test system: purified SI from Klebsiella sp. 14S; assay: as above; format: biochemical; conditions: 277 mM glucose or fructose
Method: as §3

[4] = test system: E. rhapontici sucrose isomerase (SI); conditions: Nagai et al., 1994; Véronèse and Perlot, 1998; cited from earlier work
[5] = test system: K. plymuthica sucrose isomerase (SI); conditions: Nagai et al., 1994; Véronèse and Perlot, 1998; cited from earlier work
[6] = test system: P. mesoacidophila sucrose isomerase (SI); conditions: Nagai et al., 1994; Véronèse and Perlot, 1998; cited from earlier work
[7] = molecular target: T1, Pantoea dispersa 68J sucrose isomerase (SI), mature, SEQ ID NO: 10, carboxy-terminal 6×His tag (SEQ ID NO: 52) (Pantoea dispersa, UniProt Q6XNK6); assay: Sucrose isomerase kinetics, purified SI from P. dispersa 68J (isomaltulose production), with or without glucose/fructose; format: biochemical; conditions: glucose vs fructose, 0.277 M, various sucrose concentrations
T1 sequence (Q6XNK6 34-598): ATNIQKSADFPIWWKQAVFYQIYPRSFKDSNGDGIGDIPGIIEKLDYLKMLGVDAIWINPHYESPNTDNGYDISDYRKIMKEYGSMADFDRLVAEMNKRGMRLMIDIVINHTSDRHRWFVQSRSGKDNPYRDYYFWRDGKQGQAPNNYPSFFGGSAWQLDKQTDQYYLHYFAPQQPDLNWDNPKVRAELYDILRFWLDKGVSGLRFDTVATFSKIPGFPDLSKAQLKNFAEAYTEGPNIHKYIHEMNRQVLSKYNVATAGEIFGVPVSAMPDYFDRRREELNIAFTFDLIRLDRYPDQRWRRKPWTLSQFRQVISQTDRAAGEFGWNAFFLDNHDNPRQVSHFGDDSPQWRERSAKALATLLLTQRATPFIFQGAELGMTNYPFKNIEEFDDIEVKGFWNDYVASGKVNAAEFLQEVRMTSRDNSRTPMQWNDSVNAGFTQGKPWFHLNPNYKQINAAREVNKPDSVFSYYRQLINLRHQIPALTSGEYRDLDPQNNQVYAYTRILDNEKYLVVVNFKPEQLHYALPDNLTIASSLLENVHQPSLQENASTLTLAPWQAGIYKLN
Method: (§4) The pET24b vector introduces a carboxy-terminal 6×His tag (SEQ ID NO: 52) on expressed proteins, which were purified by adsorption to Ni-NTA agarose (Qiagen) and elution with 25 mM NaH2PO4, 150 mM NaCl, 125 mM imidazole buffer (pH8.0) following the manufacturer's instructions. For storage, the eluted solution was diluted with 50% glycerol. The purity of SI proteins was tested by SDS-PAGE as described below. A batch procedure using Ni-NTA agarose in suspension yielded predominantly (80-95%) SI with a background of several other protein bands. A procedure using Ni-NTA agarose in adsorption columns yielded preparations containing a single protein band. Unless otherwise specified, this is the form of the purified SI enzymes used for biochemical characterisation.
(§5) Enzyme activities were measured by incubating 5 μl of purified enzyme with 95 μL of sucrose solution at a final concentration of 584 mM in 0.1 M citrate/phosphate buffer (pH 6.0) at 30° C. Sugar profiles in the reaction mix were analysed at intervals by CE as described previously. One unit (U) of SI activity was defined as the amount of enzyme that could release 1 μmol of isomaltulose in one minute at the initial stage of the reaction.
as §3

[8] = molecular target: T2, Klebsiella sp. 14S sucrose isomerase (SI), carboxy-terminal 6×His tag (SEQ ID NO: 52) (Klebsiella planticola, UniProt Q6XKX6); assay: Sucrose isomerase kinetics, purified SI from Klebsiella sp. 14S (isomaltulose production), with or without glucose/fructose; format: biochemical; conditions: glucose vs fructose, 0.277 M, various sucrose concentrations
T2 sequence (Q6XKX6 29-598): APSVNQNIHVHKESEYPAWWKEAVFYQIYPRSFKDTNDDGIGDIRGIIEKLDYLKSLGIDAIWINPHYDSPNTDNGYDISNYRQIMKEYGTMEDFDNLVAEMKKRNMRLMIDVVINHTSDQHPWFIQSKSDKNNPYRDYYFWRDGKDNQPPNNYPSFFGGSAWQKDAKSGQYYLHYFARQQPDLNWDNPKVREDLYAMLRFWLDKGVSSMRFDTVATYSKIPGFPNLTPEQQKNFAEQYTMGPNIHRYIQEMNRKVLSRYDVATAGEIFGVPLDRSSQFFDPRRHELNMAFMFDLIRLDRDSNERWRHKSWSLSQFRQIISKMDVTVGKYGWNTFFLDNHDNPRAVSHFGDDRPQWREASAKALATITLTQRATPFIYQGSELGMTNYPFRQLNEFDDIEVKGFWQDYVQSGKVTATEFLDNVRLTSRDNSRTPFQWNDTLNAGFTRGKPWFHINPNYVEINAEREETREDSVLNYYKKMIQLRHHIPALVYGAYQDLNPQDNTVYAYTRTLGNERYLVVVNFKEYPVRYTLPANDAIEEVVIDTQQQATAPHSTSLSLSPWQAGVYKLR
Method: as §4, with “Unless otherwise specified, this is the form of the purified SI enzymes used for biochemical characterisation.” left out
Enzyme activities were measured by incubating 5 μl of purified enzyme with 95 μL of sucrose solution at a final concentration of 584 mM in 0.1 M citrate/phosphate buffer (pH 6.0) at 30° C. Sugar profiles in the reaction mix were analysed at intervals by CE as described previously. […]
as §3

[9] = test system: P. rubrum sucrose isomerase (SI); conditions: Nagai et al., 1994; Véronèse and Perlot, 1998; cited from earlier work
[10] = test system: E. rhapontici WAC2928; assay: Growth in BP medium with different sugars; format: cell-based; conditions: 2% sugar added to BP medium, 18 h incubation at 30°C
Method: as §1, §2

[11] = Conversion of sucrose to isomaltulose in transgenic sugarcane callus expressing SI genes; format: cell-based; conditions: cell extracts of transgenic sugarcane callus; 3 of 3 68J lines, 3 of 7 14S lines
Description: The sucrose isomerase (SI) gene insert in the pET 24b vector was further cloned between the Ubi promoter from the maize ubi-l gene (Christensen and Quail, 1996, Transgen. Res. 5: 215-218) and the Agrobacterium nos terminator (Bevan et al., 1983, Nature 304: 183-187) to drive expression in sugarcane cells.
Plasmids with the sucrose isomerase genes (pU3ZErw, pU3Z14s or pU3Z68J) and the aph A construct plasmid pEmuKN (as a selectable marker) were isolated by alkaline extraction (Sambrook et al., 1989, supra), and dissolved in TE buffer. Plasmid intactness and absence of genomic DNA or RNA were checked by gel electrophoresis and concentration was measured by spectrophotometry. The sucrose isomerase (UbiSI) gene construct and selectable marker construct were co-precipitated onto tungsten microprojectiles and introduced into sugarcane callus, followed by selection for transformed callus, and regeneration of transgenic plants, essentially described by Bower et al. (1996, Molec. Breed. 2: 239-249).
Precipitation reactions were conducted by adding the following at 4° C. in turn to a 1.5 mL microfuge tube: 5 μL pEmuKN plasmid DNA (1 mg/mL), 5 μL UbiSI plasmid DNA (1 μg/μL), 50 μL tungsten (Bio-Rad M10, 100 μg/μL), 50 μL CaCl2 (2.5M), 20 μL spermidine (100 mM free base). […]

[12] = Assay of isolated (purified) SI enzyme activity; format: biochemical; conditions: purified fresh His-tagged enzymes
Method: as §4, §5
The enzymes were incubated with sucrose at different pH ranging from 2.0 to 10.6. The solution of pH 2.0 was buffered in 0.2 M KCl; pH 3.0 to pH 9.0 were in 0.1 M citrate/phosphate buffer; pH 10.0 to pH 10.6 were in 0.2 M glycine buffer. The effect of temperature from 10° C. to 70° C. was measured at pH 6.0. […]

[13] = Storage stability of purified SI proteins; format: physicochemical; conditions: elution buffer diluted with 50% glycerol
Method: The purified fresh enzymes from SDS-PAGE had specific activities for isomaltulose production of: E. rhapontici: 35 U mg^−1 protein, Klebsiella sp.: 95 U mg^−1 protein and P. dispersa: 632 U mg^−1 protein. The purified SI from E. rhapontici lost function during overnight storage at −20° C. in elution buffer diluted with 50% glycerol. In contrast, the purified enzymes from 14S or P. dispersa retained 100% of the fresh enzyme efficiency for isomaltulose production after 6-month storage at −20° C., or 60% after 15-day storage at room temperature in the same buffer. Because of instability, the E. rhapontici SI was not characterised further in purified form. Cheetham et al., (1984) found substantial differences between E. rhapontici strains for SI stability in immobilized cells, and the enzyme from strain NCPPB 1578 was stable in purified form (Cheetham, 1984).
as §4

O=C(CO)[C@@H](O)[C@H](O)[C@H](O)CO [fructose]
effect on growth of P. dispersa 68J [1]: supported faster growth | mode of inhibition of isomaltulose production [2]: competitive inhibitors | mode of inhibition of isomaltulose production [3]: competitive inhibitors

OC[C@H]1OC(O)[C@H](O)[C@@H](O)[C@@H]1O (some centres unmarked) [glucose]
Inhibition of activity [4]: inhibit activity | Inhibition of activity [5]: inhibit activity | Inhibition of activity [6]: inhibit activity | Relative inhibition [7]: stronger inhibition than fructose | Relative inhibition [8]: stronger inhibition than fructose | Inhibition of activity [9]: inhibit activity

OC[C@H]1O[C@H](OC[C@H]2OC(O)(CO)[C@@H](O)[C@@H]2O)[C@H](O)[C@@H](O)[C@@H]1O (stereo partly drawn) [isomaltulose, α-D-glucopyranosyl-1,6-D-fructofuranose]
effect on growth of E. rhapontici WAC2928 [10]: substantially enhanced growth | effect on growth of P. dispersa 68J [1]: little effect

B1: Erwinia rhapontici: sucrose isomerase cloned from Erwinia rhapontici WAC2928, SEQ ID NO: 2, mature polypeptide SEQ ID NO: 4 (protein, listed as Erwinia rhapontici)
chain: MSSQELKAAVAIFLATTFSATSYQACSAGPDTAPSLTVQQSNALPTWWKQAVFYQVYPRSFKDTNGDGIGDLNGIIENLDYLKKLGIDAIWINPHYDSPNTDNGYDIRDYRKIMKEYGTMEDFDRLISEMKKRNMRLMIDIVINHTSDQHAWFVQSKSGKNNPYRDYYFWRDGKDGHAPNNYPSFFGGSAWEKDDKSGQYYLHYFAKQQPDLNWDNPKVRQDLYDMLRFWLDKGVXGLRFDTVATYSKIPNFPDLSQQQLKNFAEEYTKGPKIHDYVNEMNREVLSHYDIATAGEIFGVPLDKSIKFFDRRRNELNIAFTFDLIRLDRDADERWRRKDWTLSQFRKIVDKVDQTAGEYGWNAFFLDNHDNPRAVSHFGDDRPQWREHAAKALATLTLTQRATPFIYQGSELGMTNYPFKKIDDFDDVEVKGFWQDYVETGKVKAEEFLTNVRQTSRDNSRTPFQWDASKNAGFTSGTPWLKINPNYKEINSADQINNPNSVFNYYRKLINIRHDIPALTYGSYIDLAPDNNSVYAYTRTFGAEKYLVVINFKEEVMHYTLPGDLSINKVITENNSHTIVNKNDVEDPRGATSVCSPFQAQKRPGDPGYSAAHSIRFLPRFFASYRGDIHAFK
modifications: not fully specified; sig_peptide (1)..(36); mat_peptide (37)..(632); MOD_RES (200)..(200) Any amino acid
isomaltulose peak relative to sucrose peak on the CE electrograph [11]: even lower isomaltulose levels than the 14S lines | specific activity for isomaltulose production [12]: 35 U mg^−1 protein | function after overnight storage at −20° C. [13]: lost function
